Results published in ChEMBL document CHEMBL3045578, “Synthesis and study of the antidepressant activity of novel 4,5-dihydro-7-alkoxy(phenoxy)-tetrazolo[1,5-a]quinoline derivatives” (2012).
Active and inactive are the calls of the source. The rule behind the calls is not given here.

Assays:
Mus musculus [1] = test: Antidepressant activity in Mus musculus Kunming (mouse) assessed as decrease in immobility time at 40 mg/kg, po administered 30 min prior to testing measured for 6 min by tail suspension test (reference value: 110.67 +/- 11.52 secs); type: functional
Mus musculus [2] = test: Antidepressant activity in Mus musculus Kunming (mouse) assessed as immobility time at 40 mg/kg, po administered 30 min prior to testing measured for 6 min by forced swimming test (reference value: 177.67 +/- 10.88 secs); type: functional

SMILES: c1ccc(COc2ccc3c(c2)CCc2nnnn2-3)cc1
- Time (Mus musculus [1]): 20 s
- Time (Mus musculus [2]): 95.17 s

SMILES: CCCCCCCOc1ccc2c(c1)CCc1nnnn1-2
- Time (Mus musculus [1]): 20 s
- Time (Mus musculus [2]): 170.5 s

SMILES: CCCCCCOc1ccc2c(c1)CCc1nnnn1-2
- Time (Mus musculus [2]): 133.5 s

SMILES: CCCOc1ccc2c(c1)CCc1nnnn1-2
- Time (Mus musculus [1]): 93 s
- Time (Mus musculus [2]): 181.5 s

SMILES: Fc1ccccc1COc1ccc2c(c1)CCc1nnnn1-2
- Time (Mus musculus [1]): 20 s

SMILES: Brc1cccc(COc2ccc3c(c2)CCc2nnnn2-3)c1
- Time (Mus musculus [1]): 20 s

SMILES: Fc1ccc(COc2ccc3c(c2)CCc2nnnn2-3)cc1
- Time (Mus musculus [2]): 65.17 s

SMILES: Clc1cccc(COc2ccc3c(c2)CCc2nnnn2-3)c1
- Time (Mus musculus [2]): 65.17 s

SMILES: Fc1cccc(COc2ccc3c(c2)CCc2nnnn2-3)c1
- Time (Mus musculus [1]): 20 s
- Time (Mus musculus [2]): 65.17 s

SMILES: Cc1ccc(COc2ccc3c(c2)CCc2nnnn2-3)cc1
- Time (Mus musculus [2]): 65.17 s

SMILES: CCCCCCCCOc1ccc2c(c1)CCc1nnnn1-2
- Time (Mus musculus [1]): 107.5 s
- Time (Mus musculus [2]): 172.83 s

SMILES: Clc1ccccc1COc1ccc2c(c1)CCc1nnnn1-2
- Time (Mus musculus [1]): 20 s
- Time (Mus musculus [2]): 65.17 s

SMILES: Brc1ccccc1COc1ccc2c(c1)CCc1nnnn1-2
- Time (Mus musculus [1]): 20 s
- Time (Mus musculus [2]): 65.17 s

SMILES: CCCCOc1ccc2c(c1)CCc1nnnn1-2
- Time (Mus musculus [1]): 20 s

SMILES: CNCCC(Oc1ccc(C(F)(F)F)cc1)c1ccccc1 (configuration not stated) [FLUOXETINE]
- Activity (Mus musculus [1]): Active
- Time (Mus musculus [2]): 93.17 s

SMILES: Nc1ccc(COc2ccc3c(c2)CCc2nnnn2-3)cc1
- Time (Mus musculus [1]): 98.5 s
- Time (Mus musculus [2]): 178 s

SMILES: CCOc1ccc2c(c1)CCc1nnnn1-2
- Time (Mus musculus [1]): 108.17 s
- Time (Mus musculus [2]): 179.83 s

SMILES: Clc1ccc(COc2ccc3c(c2)CCc2nnnn2-3)cc1
- Time (Mus musculus [1]): 20 s

SMILES: COc1ccc(COc2ccc3c(c2)CCc2nnnn2-3)cc1
- Time (Mus musculus [1]): 20 s
- Time (Mus musculus [2]): 65.17 s

SMILES: CCCCCOc1ccc2c(c1)CCc1nnnn1-2
- Time (Mus musculus [1]): 20 s
- Time (Mus musculus [2]): 135.67 s
